# Laboratory results published in ChEMBL document CHEMBL4418281, “Carboxamide inhibitors” (2017).
# Columns and labels:
# [1] = biological target: E3 ubiquitin-protein ligase SMURF2 (Homo sapiens, UniProt Q9HAU4); assay: Inhibition of SMURF2 (unknown origin) in presence of E1/E2/Ub mix measured after 45 mins by europium-labeled streptavidin based TR-FRET assay
# [2] = biological target: E3 ubiquitin-protein ligase SMURF1 (Homo sapiens, UniProt Q9HCE7); assay: Inhibition of SMURF1 (unknown origin) in presence of E1/E2/Ub mix measured after 45 mins by europium-labeled streptavidin based TR-FRET assay
# Chain of E3 ubiquitin-protein ligase SMURF1 (Q9HCE7 whole entry): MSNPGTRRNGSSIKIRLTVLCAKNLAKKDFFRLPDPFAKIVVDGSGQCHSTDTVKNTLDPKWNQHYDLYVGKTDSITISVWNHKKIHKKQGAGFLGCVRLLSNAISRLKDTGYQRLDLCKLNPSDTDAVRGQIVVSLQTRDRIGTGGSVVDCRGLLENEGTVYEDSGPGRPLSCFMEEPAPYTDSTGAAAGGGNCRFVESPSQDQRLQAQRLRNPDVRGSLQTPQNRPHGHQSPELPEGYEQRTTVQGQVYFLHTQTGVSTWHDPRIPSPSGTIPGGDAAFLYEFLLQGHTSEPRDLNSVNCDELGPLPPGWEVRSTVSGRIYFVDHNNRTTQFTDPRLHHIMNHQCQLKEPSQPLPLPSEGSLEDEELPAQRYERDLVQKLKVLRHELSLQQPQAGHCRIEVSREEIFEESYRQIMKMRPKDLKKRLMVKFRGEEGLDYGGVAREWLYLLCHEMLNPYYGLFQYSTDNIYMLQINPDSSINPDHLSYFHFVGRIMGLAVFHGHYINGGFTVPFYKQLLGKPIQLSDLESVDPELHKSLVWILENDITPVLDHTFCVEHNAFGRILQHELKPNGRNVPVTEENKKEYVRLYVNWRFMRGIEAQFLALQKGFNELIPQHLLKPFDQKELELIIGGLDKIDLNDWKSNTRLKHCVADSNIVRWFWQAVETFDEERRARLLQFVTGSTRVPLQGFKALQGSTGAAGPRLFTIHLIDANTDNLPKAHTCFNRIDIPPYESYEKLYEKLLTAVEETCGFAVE
# Chain of E3 ubiquitin-protein ligase SMURF2 (Q9HAU4 whole entry): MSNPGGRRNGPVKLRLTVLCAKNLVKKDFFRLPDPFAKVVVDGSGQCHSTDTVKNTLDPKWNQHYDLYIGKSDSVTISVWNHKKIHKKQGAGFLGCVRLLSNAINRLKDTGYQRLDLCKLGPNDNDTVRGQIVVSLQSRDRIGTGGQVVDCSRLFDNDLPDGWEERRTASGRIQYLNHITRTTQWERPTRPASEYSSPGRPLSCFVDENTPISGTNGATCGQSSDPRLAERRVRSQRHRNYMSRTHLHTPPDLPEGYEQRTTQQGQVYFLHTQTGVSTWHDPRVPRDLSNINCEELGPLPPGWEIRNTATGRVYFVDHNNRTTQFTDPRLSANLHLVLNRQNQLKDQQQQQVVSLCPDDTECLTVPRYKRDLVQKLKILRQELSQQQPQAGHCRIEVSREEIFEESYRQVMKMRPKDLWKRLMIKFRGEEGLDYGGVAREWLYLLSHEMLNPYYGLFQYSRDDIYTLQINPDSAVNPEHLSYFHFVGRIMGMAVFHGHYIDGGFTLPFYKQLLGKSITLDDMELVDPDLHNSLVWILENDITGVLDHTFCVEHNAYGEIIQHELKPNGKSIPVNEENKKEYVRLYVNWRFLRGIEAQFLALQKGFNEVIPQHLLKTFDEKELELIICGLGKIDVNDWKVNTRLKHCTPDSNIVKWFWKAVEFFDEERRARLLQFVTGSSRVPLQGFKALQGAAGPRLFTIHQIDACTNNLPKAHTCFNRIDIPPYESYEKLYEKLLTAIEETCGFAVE
IC50 [1] [µM],Structure (SMILES),IC50 [2] [µM]
20,Cc1c(NC(=O)c2noc3c2CCCc2cc(OC(F)(F)F)ccc2-3)c(=O)n(Cc2ccc(F)cc2)n1C,
20,Cc1c(NC(=O)c2noc3c2CCCc2cc(OC(F)(F)F)ccc2-3)c(=O)n(Cc2ccccc2F)n1C,
20,COc1ccc2c(c1)CCCc1c(C(=O)Nc3c(C)n(C)n(Cc4ccc(F)cc4)c3=O)noc1-2,

Structure (SMILES),IC50 [1] [µM],IC50 [2] [µM]
Cc1c(NC(=O)c2noc3c2CCCc2cc(CC(C)C)ccc2-3)c(=O)n(-c2ccccc2Cl)n1C,0.74,0.0225
